pEC50: −log10 of the molar value.
Test system: HCT-15
Assay: Cytotoxicity against TNFalpha-induced human HCT-15 cells assessed as reduction in cell viability preincubated for 2 hrs followed by TNFalpha stimulation and measured after 72 hrs by celltiter-glo assay
Assay type: functional, cell-based

COc1cc(O)c2c(c1)/C=C/C[C@H](O)[C@H](O)C(=O)/C=C\C[C@H](C)OC2=O
pEC50: 8.70
